Data published in ChEMBL document CHEMBL1201862, “PubChem BioAssay data set” (2004).
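These data come from cells grown in 96-well plates and exposed to compound for 48 hours at five concentrations. Here, GI50 denotes the concentration required for 50% inhibition of growth.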 The source made the active and inactive calls. No stated cut-off is given here; in the data, active = GI50 up to about 1.1 µM and inactive = higher.

Tests used:
Experiment in all cases: NCI tumour cell line growth inhibition, 48 h
DMS-114 = tested on: DMS-114
HOP-18 = tested on: HOP-18
LXFL 529 = tested on: LXFL 529
M19-MEL = tested on: M19-MEL
RXF 631 = tested on: RXF 631
SNB-78 = tested on: SNB-78
XF498 = tested on: XF498
DLD-1 = tested on: DLD-1
DMS-273 = tested on: DMS-273

Row | Structure (SMILES) | GI50 (DMS-114) | GI50 (HOP-18) | GI50 (LXFL 529) | GI50 (M19-MEL) | GI50 (RXF 631) | GI50 (SNB-78) | GI50 (XF498) | GI50 (DLD-1) | GI50 (DMS-273)
1 | CCOC(=O)Nc1ccc(S(=O)(=O)I)cc1.CCOC(=O)Nc1ccc(S(=O)(=O)I)cc1.CN(C=O)C1=C(N(C)C=O)C(N(C)C=O)=C(N(C)C=O)C(=O)C1=O | > 100 µM (inactive) | > 100 µM (inactive) | > 100 µM (inactive) | > 100 µM (inactive) | > 100 µM (inactive) | > 100 µM (inactive) | > 100 µM (inactive) |  | 
2 | CC(=O)OC12CCCCC1C1(CCCC1)NC2=O (centres undefined) | > 100 µM (inactive) | > 100 µM (inactive) | > 100 µM (inactive) | > 100 µM (inactive) |  | > 100 µM (inactive) | > 100 µM (inactive) | > 100 µM (inactive) | 
3 | COc1ccc(CC2NCCc3c2[nH]c2ccccc32)cc1 (centres undefined) | 33.1 µM (inactive) |  | 62.4 µM (inactive) | 71.4 µM (inactive) | 25.3 µM (inactive) | 70.6 µM (inactive) | 16.9 µM (inactive) | > 100 µM (inactive) | 26.5 µM (inactive)
4 | CC1(C)OCN(c2ccc(N3CCOCC3)cc2)Cn2c1nc1ccccc12 | > 100 µM (inactive) | > 100 µM (inactive) | > 100 µM (inactive) | > 100 µM (inactive) |  | > 100 µM (inactive) |  | > 100 µM (inactive) | 80.9 µM (inactive)
5 | Cc1nc2ccccc2c(=O)n1/N=C(\N=N\c1cc(Cl)ccc1Cl)c1cccc(-c2ccco2)c1 | 41.4 µM (inactive) | > 100 µM (inactive) |  | > 100 µM (inactive) | > 100 µM (inactive) |  |  | 87.9 µM (inactive) | 63.2 µM (inactive)
6 | COc1cccc(N2C(=O)[C@H]3[C@H]4CC(C(C)(C)C)CC[C@H]4c4c([nH]c5ccccc45)[C@H]3C2=O)c1 (some centres undefined) | 17.7 µM (inactive) |  | 20 µM (inactive) | 19 µM (inactive) | 17.6 µM (inactive) | 14.5 µM (inactive) |  | 22.5 µM (inactive) | 18.3 µM (inactive)
7 | Cc1ccc(NC(=O)C(=O)C2NC(=S)NC2=O)c([N+](=O)[O-])c1 (centres undefined) | > 100 µM (inactive) | > 100 µM (inactive) | > 100 µM (inactive) | > 100 µM (inactive) |  | > 100 µM (inactive) | > 100 µM (inactive) | > 100 µM (inactive) | > 100 µM (inactive)
8 | CC(=O)c1cc2c3c(c1)c1cc4c(cc1c(=O)n3CC2)OCO4 | 37.7 µM (inactive) | 13.5 µM (inactive) | 10.4 µM (inactive) | 34 µM (inactive) | 21.5 µM (inactive) | > 100 µM (inactive) | > 100 µM (inactive) | 15.2 µM (inactive) | 7 µM (inactive)
9 | NS(=O)(=O)c1ccc(NC(=O)c2cccc3c(=O)c4ccccc4[nH]c23)cc1 | 74.8 µM (inactive) | > 100 µM (inactive) | 30.6 µM (inactive) | 73.3 µM (inactive) |  | 49.3 µM (inactive) | 11.5 µM (inactive) | > 100 µM (inactive) | 70.1 µM (inactive)
10 | CC1(Cl)C(=O)NC(=O)N([C@H]2C[C@H](O)[C@@H](CO)O2)C1N=[N+]=[N-] (some centres undefined) | > 94.8 µM (inactive) | > 100 µM (inactive) | > 100 µM (inactive) | > 100 µM (inactive) | > 100 µM (inactive) | > 100 µM (inactive) | > 100 µM (inactive) | > 100 µM (inactive) | > 100 µM (inactive)
11 | COc1c(C2=NC(C(C)C)CO2)ccc2ccccc12 (centres undefined) |  |  | 19.2 µM (inactive) | 55.5 µM (inactive) | 39.5 µM (inactive) | 79.4 µM (inactive) | 30.4 µM (inactive) | 16.1 µM (inactive) | 23 µM (inactive)
12 | CCN(CC)CCC(=O)Nc1ccc2c(c1)C(=O)c1ccc(NC(=O)CCN(CC)CC)cc1C2=O | 3.21 µM (inactive) | 0.475 µM (active) | 3.11 µM (inactive) | > 100 µM (inactive) |  | 5.96 µM (inactive) |  | 1.81 µM (inactive) | 1.19 µM (inactive)
13 | C=C1C(=O)C23C(O)C1CC[C@H]2C12CCCC(C)(COC(C)=O)[C@H]1[C@H](O)[C@]3(O)OC2 (some centres undefined) | 1.87 µM (inactive) | 1.27 µM (inactive) | 0.427 µM (active) | 2.01 µM (inactive) |  | 0.653 µM (active) | 1.4 µM (inactive) | 0.577 µM (active) | 1.94 µM (inactive)
14 | c1cnc2nc3n(c2c1)CSC3 | > 100 µM (inactive) |  | > 100 µM (inactive) | > 100 µM (inactive) |  | > 100 µM (inactive) | > 100 µM (inactive) | > 100 µM (inactive) | 
15 | CC(C)N(C(=O)C12C3C4C5C3C1(C(=O)O)C5C42)C(C)C (centres undefined) | > 100 µM (inactive) |  | > 100 µM (inactive) | > 100 µM (inactive) | > 100 µM (inactive) | > 100 µM (inactive) | > 100 µM (inactive) | > 100 µM (inactive) | > 100 µM (inactive)
16 | O=C(/C(=C/c1ccccc1)c1ccccc1)N1c2ccccc2CC1c1c[nH]c2ccccc12 (centres undefined) | 5.7 µM (inactive) |  | 8.3 µM (inactive) | 38.6 µM (inactive) |  | 9.2 µM (inactive) | 3.05 µM (inactive) | 53.2 µM (inactive) | 7.83 µM (inactive)
17 | CC(C)[C@@H]1C=C(c2ccccc2)c2ccccc2C1C(C#N)(C#N)C(C)C (some centres undefined) | 97.7 µM (inactive) | > 100 µM (inactive) | > 100 µM (inactive) | > 100 µM (inactive) |  | > 100 µM (inactive) | 45 µM (inactive) | > 100 µM (inactive) | 48.6 µM (inactive)
18 | CCc1c(OC(C)=O)c2c(NC3OC(COC(C)=O)C(OC(C)=O)C(OC(C)=O)C3OC(C)=O)nc(OC)nc2oc1=O (centres undefined) | > 100 µM (inactive) | > 100 µM (inactive) | > 100 µM (inactive) | > 100 µM (inactive) |  | > 100 µM (inactive) | > 100 µM (inactive) | > 100 µM (inactive) | > 100 µM (inactive)
19 | Cc1ccc(S(=O)(=O)N/N=C\c2c3ccccc3[n+](C)c3ccccc23)cc1 | 24.9 µM (inactive) |  |  | 32.1 µM (inactive) |  | 61.7 µM (inactive) |  | 38.1 µM (inactive) | 22.1 µM (inactive)
20 | CC1CCC2(OCCO2)[C@]2(C)CC(O)C(=O)C=C12 (some centres undefined) | > 100 µM (inactive) | > 100 µM (inactive) | > 100 µM (inactive) | > 100 µM (inactive) |  |  | > 100 µM (inactive) | > 100 µM (inactive) | > 100 µM (inactive)
21 | C/C(CN1C(=O)c2ccccc2C1=O)=N\NS(=O)(=O)c1ccc(Cl)cc1 |  | > 100 µM (inactive) | > 100 µM (inactive) | > 100 µM (inactive) | > 100 µM (inactive) | > 100 µM (inactive) | > 100 µM (inactive) | > 100 µM (inactive) | > 100 µM (inactive)
22 | Cc1ccc(Nc2nc3c(s2)C(=O)c2ccccc2C3=O)cc1 | 1.52 µM (inactive) | 1.13 µM (inactive) | 1.63 µM (inactive) | 0.324 µM (active) | 1.95 µM (inactive) | 2.49 µM (inactive) | 1.94 µM (inactive) | 2.07 µM (inactive) | 1.95 µM (inactive)
23 | O=C1[C@H]2ON(c3ccccc3)C(c3ccccc3)[C@H]2C(=O)N1c1ccc(Cc2ccc(N3C(=O)[C@@H]4ON(c5ccccc5)C(c5ccccc5)[C@@H]4C3=O)cc2)cc1 (some centres undefined) | > 100 µM (inactive) | > 100 µM (inactive) | > 100 µM (inactive) |  | > 100 µM (inactive) | > 100 µM (inactive) |  | > 100 µM (inactive) | > 100 µM (inactive)
24 | O=S(=O)(N/N=C/c1ccc(Cl)c(Cl)c1)c1ccccc1 | 23.8 µM (inactive) | 36.3 µM (inactive) | 30.4 µM (inactive) | 37.3 µM (inactive) |  | 41.5 µM (inactive) | 32.2 µM (inactive) | 31.3 µM (inactive) | 37.7 µM (inactive)
25 | FC(F)(F)c1nc2ccc3[nH]c4c(-c5ccccc5)nccc4c3c2[nH]1 | > 45.4 µM (inactive) | > 100 µM (inactive) | > 100 µM (inactive) | > 100 µM (inactive) | > 100 µM (inactive) | > 100 µM (inactive) | > 100 µM (inactive) | > 100 µM (inactive) | 
26 | O=C(O/N=C1/CCCC/C1=C\c1ccccc1)c1ccc(Cl)cc1 |  | > 100 µM (inactive) | 48 µM (inactive) | > 100 µM (inactive) |  | > 100 µM (inactive) | 0.439 µM (active) | > 100 µM (inactive) | > 100 µM (inactive)
